Measurements: paper PMC11249646, “Small-Molecule Disruptors of the Interaction between Calcium- and Integrin-Binding Protein 1 and Integrin αIIbβ3 as Novel Antiplatelet Agents” (ACS Pharmacology & Translational Science, 2024)
Read-outs that look alike come from different tables or passages of the source.

Target: T1, CIB1 and αIIb interaction (CIB1-GST : F-αIIb peptide) (Homo sapiens, UniProt Q99828)
T1 construct: made in house; host or cells: BL-21 plus RIL cells (E. coli)
T1 sequence (Q99828 1-191): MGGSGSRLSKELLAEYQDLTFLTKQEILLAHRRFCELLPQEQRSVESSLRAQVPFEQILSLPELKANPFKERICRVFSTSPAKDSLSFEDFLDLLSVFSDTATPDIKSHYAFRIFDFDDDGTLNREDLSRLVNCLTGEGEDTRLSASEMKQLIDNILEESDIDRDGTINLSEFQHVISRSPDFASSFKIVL
Test: FP assay, 1536-well qHTS format (primary and confirmatory screen)
Type: binding
Conditions: for Efficacy (%): negative = inhibition; for Curve Class: negative sign = inhibitory curve; for IC50: read-out: IC50

[1] = qHTS primary screen hits, Table S2
[2] = qHTS primary screen hits, Table S2, several classes where COUNT > 1
[3] = qHTS primary screen of LOPAC/NPACT libraries

Row | Compound | Efficacy (%) [1] [%] | Curve Class [2] | IC50 [1] [µM] | Efficacy (%) [3] [%] | Curve Class [3] | IC50 [3] [µM] | Curve Class [1]
1 | Nc1cc(-c2ccncc2)c[nH]c1=O [NCGC00016896-06] | -48 | -2.2 | 50.1 |  |  |  | 
2 | O=c1oc(Cl)c(Cl)c2ccccc12 [NCGC00015369-06] |  |  |  | -37 | -2.2 | 31.6 | 
3 | CCCc1ccc(-c2csc(NC(=O)c3ccncc3NS(=O)(=O)c3ccc(C)cc3)n2)cc1.O=C(O)C(F)(F)F [NCGC00318955-01] | -35 | -2.4 | 50.1 |  |  |  | 
4 | N#Cc1ccc(S(=O)(=O)Nc2cnccc2C(=O)Nc2nc(-c3ccccc3)cs2)cc1.O=C(O)C(F)(F)F [NCGC00344937-01] | -38 |  | 79.4 |  |  |  | -2.4
5 | Cc1ccc(O)c(N=Nc2ccccc2)n1 [NCGC00185991-01] |  |  |  | -14 | -1.2 | 1.8 | 
6 | Cc1cc2c(cc1C1(c3ccc(C(=O)O)cc3)CC1)C(C)(C)CCC2(C)C [NCGC00241454-01] | -27 | -2.4 | 79.4 |  |  |  | 
7 | CCC(C)(C)C(=O)O[C@H]1C[C@@H](C)C=C2C=C[C@H](C)[C@H](CC[C@@H]3C[C@@H](O)CC(=O)O3)[C@H]21 [NCGC00017324-07] | -17 | -2.4 |  |  |  |  | 
8 | CCN(CC)CCOc1ccc(Nc2ncc3cc(-c4c(Cl)cccc4Cl)c(=O)n(C)c3n2)cc1.Cl.Cl.O [NCGC00261745-01] | -36 |  | 50.1 |  |  |  | -2.2
9 | CCOC(=O)Nc1ccc(NCc2ccc(F)cc2)nc1N.O=C(O)/C=C\C(=O)O [NCGC00015451-04] |  |  |  | -53 |  | 39.8 | 
10 | N#CCc1cc(-c2ccc(F)c(F)c2)nn1-c1nc(C(=O)O)cs1.O=C(O)C(F)(F)F [NCGC00356771-02] | -16 |  | 50.1 |  |  |  | -2.4
11 | CC(C)COc1ccc(-c2ccc(=O)n(CC(=O)NCCc3ccccc3)n2)cc1.O=C(O)C(F)(F)F [NCGC00262348-01] | -38 |  | 56.2 |  |  |  | -2.4
12 | O=c1c(O)c(-c2ccc(O)cc2O)oc2cc(O)cc(O)c12 [NCGC00261461-01] |  |  |  | -26 | -1.2 | 4 | 
13 | CCCC(=O)OC[C@@H](OC(=O)CCC)[C@@H](OC(=O)CCC)[C@H](Cn1c2nc(=O)[nH]c(=O)c-2nc2cc(C)c(C)cc21)OC(=O)CCC [NCGC00181300-01] | -140 | -1.1 | 2.8 |  |  |  | 
14 | Cc1cc(O)cc(Oc2cc(C)c(C(=O)O)c(O)c2)c1 [NCGC00380115-01] |  |  |  | -28 | -2.4 | 56.2 | 
15 | CS(=O)(=O)c1ccc(C(=O)C2C(=O)CCCC2=O)c([N+](=O)[O-])c1 [NCGC00163843-03] | -30 | -2.4 | 126 |  |  |  | 
16 | Cc1c(OCC(F)(F)F)ccnc1C[S+]([O-])c1nc2ccccc2[nH]1 (stereo not shown) [NCGC00015615-15] | -26 |  | 50.1 |  |  |  | -2.4
17 | O=C(O)C(F)(F)F.O=C(c1ccc2ccccc2c1)c1no[n+]([O-])c1C(=O)c1ccc2ccccc2c1 [NCGC00351316-01] | -35 |  | 44.7 |  |  |  | -2.2
